{"source": "patent US4241066A", "about": "“14-Amino derivatives of morphine, methods of making them and analgesic compositions containing them” (priority 1977, dated 1980)", "key": {"[1]": {"test_system": "opiate receptor", "test": "in vivo agonist test in the rat, tail pressure as nociceptive stimulus (Green and Young)", "conditions": "administered subcutaneously", "procedure": "The compounds have been screened for agonist activity in the rat using tail pressure as the nociceptive stimulus as described by Green, H. F., and Young, P. A., Br. J. Pharmac. Chemother., 6, 572 (1951) and for morphine antagonist activity in rat using a tail flick test modified from the method described for mice by Ben Bassat et al (Arch Int. Pharmacoldyn. 122, 434 [1959]). The nociceptive stimulus in this test is a hot water bath (55° C.)."}, "[2]": {"biological_target": "T1, opiate receptor (Rattus norvegicus, UniProt P33535)", "T1 construct": "from tissue; host or cells: living rat (whole animal, subcutaneous dosing)", "T1 sequence (P33535 whole entry)": "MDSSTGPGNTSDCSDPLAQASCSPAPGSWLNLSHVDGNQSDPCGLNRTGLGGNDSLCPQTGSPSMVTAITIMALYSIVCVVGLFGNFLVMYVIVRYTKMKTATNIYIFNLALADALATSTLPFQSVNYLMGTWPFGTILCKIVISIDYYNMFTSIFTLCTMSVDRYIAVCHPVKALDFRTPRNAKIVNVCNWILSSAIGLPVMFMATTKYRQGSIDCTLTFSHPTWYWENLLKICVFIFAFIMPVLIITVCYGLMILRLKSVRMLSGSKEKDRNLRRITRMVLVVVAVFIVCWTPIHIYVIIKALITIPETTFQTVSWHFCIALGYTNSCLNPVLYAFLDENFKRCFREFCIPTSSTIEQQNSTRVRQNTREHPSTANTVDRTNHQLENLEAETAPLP", "format": "in vivo", "conditions": "tail flick, hot water bath 55° C., administered subcutaneously", "procedure": "Chemother., 6, 572 (1951) and for morphine antagonist activity in rat using a tail flick test modified from the method described for mice by Ben Bassat et al (Arch Int. Pharmacoldyn. 122, 434 [1959]). The nociceptive stimulus in this test is a hot water bath (55° C.)."}}}
{"smiles": "CCCCCCN[C@@]12C=CC(=O)[C@@H]3Oc4c(OC)ccc5c4[C@@]31CCN(CC1CC1)[C@@H]2C5", "note": "[Example 38]", "values": [{"measurement": "ED50 (agonist, antinociceptive)", "setting": "[1]", "result": 1.92, "unit": "mg/kg"}]}
{"smiles": "O=C1C=C[C@@]2(NCC3CC3)[C@H]3Cc4ccc(O)c5c4[C@@]2(CCN3CC2CC2)[C@H]1O5", "note": "[Example 48]", "values": [{"measurement": "AD50 (morphine antagonist)", "setting": "[2]", "result": 0.0027, "unit": "mg/kg"}]}
{"smiles": "O=CN[C@@]12C=CC(=O)[C@@H]3Oc4c(O)ccc5c4[C@@]31CCN(CC1CC1)[C@@H]2C5", "note": "[Example 49]", "values": [{"measurement": "AD50 (morphine antagonist)", "setting": "[2]", "result": 0.132, "unit": "mg/kg"}]}
{"smiles": "CCCCCC(=O)N[C@@]12C=CC(=O)[C@@H]3Oc4c(O)ccc5c4[C@@]31CCN(CC1CC1)[C@@H]2C5", "note": "[Example 54]", "values": [{"measurement": "ED50 (agonist, antinociceptive)", "setting": "[1]", "result": 0.0036, "unit": "mg/kg"}]}
{"smiles": "CN1CC[C@]23c4c5ccc(O)c4O[C@H]2[C@@H](O)C=C[C@H]3[C@H]1C5", "note": "[morphine]", "values": [{"measurement": "ED50 (agonist, antinociceptive)", "setting": "[1]", "result": 0.66, "unit": "mg/kg"}]}
